Several values for one entry are separate records, joined by “and”; a condition that tells them apart may be missing. Equal values may be shown once.
Test: molar heat capacity at constant pressure
Conditions: 101.33 kPa

CN(C)C=O [dimethylformamide]
Crystal
Conditions	molar heat capacity at constant pressure [J/K/mol]
5 K	0.221
7.54 K	0.753
7.59 K	0.763
8.21 K	0.931
8.29 K	0.964
8.88 K	1.19
9.41 K	1.46
9.52 K	1.55
9.91 K	1.74
10 K	1.79
10.37 K	1.995
10.81 K	2.263
11.24 K	2.533
11.66 K	2.776
12.07 K	2.996
12.44 K	3.216
12.83 K	3.574
13.05 K	3.741
13.48 K	4.017
14.16 K	4.518
14.83 K	5.048
15 K	5.187
15.49 K	5.622
16.15 K	6.115
16.81 K	6.702
17.45 K	7.307
18.1 K	7.9
18.75 K	8.506
19.2 K	8.88
19.64 K	9.354
20 K	9.678
20.28 K	9.986
21.81 K	11.31
24.35 K	13.98
25 K	14.64
26.01 K	15.67
28.18 K	17.9
29.89 K	19.58
30 K	19.63
32.35 K	21.81
34.82 K	24.08
37.3 K	26.24
39.15 K	27.83
40 K	28.52
40.98 K	29.35
42.91 K	30.92
43.45 K	31.29
44.78 K	32.3
45.93 K	33.16
49.17 K	35.67
50 K	36.34
51.08 K	37.1
53.56 K	38.97
56.03 K	40.81
58.51 K	42.63
60 K	43.49
60.98 K	44.1
63.46 K	45.65
65.93 K	47.18
68.4 K	49.19
70 K	49.95
70.88 K	50.36
73.21 K	52.04
75.22 K	52.99
77.32 K	54.31
79.34 K	55.1
80 K	55.45
82.06 K	56.51
84.87 K	57.9
87.85 K	59.4
90 K	60.47
90.82 K	60.89
93.8 K	62.3
96.76 K	63.67
99.73 K	65.16
100 K	65.36
102.7 K	66.55
105.67 K	67.8
106.15 K	68.12
108.64 K	69.18
109.01 K	69.31
110 K	69.68
111.61 K	70.34
111.97 K	70.65
114.57 K	71.6
114.94 K	71.75
117.89 K	73.04
120 K	73.76
120.75 K	74.11
123.71 K	75.3
126.68 K	76.26
129.64 K	77.49
130 K	77.82
132.61 K	78.6
138.24 K	80.9
140 K	81.78
146.91 K	84.72
149.76 K	85.72
150 K	85.56
152.73 K	86.72
155.69 K	87.47
158.66 K	88.47
160 K	89.05
161.62 K	89.38
164.59 K	90.46
167.56 K	91.54
170 K	92.62
170.53 K	92.79
173.49 K	94.53
178.4 K	96.61
180 K	96.36
184.4 K	99.44
184.65 K	101.2
190 K	100.5
191.1 K	105.5
191.8 K	105
198.9 K	124.1
200 K	104.6
200.5 K	130.6
201.1 K	139.5
201.51 K	150.5
210 K	107.7
212.86 K	108.1

Liquid, Vacuum adiabatic calorimetry
Conditions	molar heat capacity at constant pressure
212.86 K	141.4 J/K/mol
213 K	142.4 J/K/mol
215.3 K	141.5 J/K/mol
216.03 K	141.8 J/K/mol
217.78 K	141.7 J/K/mol
217.98 K	142 J/K/mol
220 K	141.9 J/K/mol
220.95 K	141.8 J/K/mol
222.56 K	142 J/K/mol
223.91 K	142.2 J/K/mol
225.22 K	142.2 J/K/mol
226.86 K	142.2 J/K/mol
228.18 K	142.4 J/K/mol
229.81 K	142.5 J/K/mol
230 K	142.5 J/K/mol
230.54 K	142.5 J/K/mol
231.13 K	142.7 J/K/mol
232.77 K	142.5 J/K/mol
233.19 K	142.9 J/K/mol
235.55 K	142.5 J/K/mol
235.72 K	142.8 J/K/mol
236.14 K	142.7 J/K/mol
238.66 K	143 J/K/mol
238.73 K	143.2 J/K/mol
239.07 K	143 J/K/mol
240 K	143 J/K/mol
241.6 K	143.1 J/K/mol
242.25 K	143.5 J/K/mol
244.54 K	143.3 J/K/mol
245.77 K	143.3 J/K/mol
247.48 K	143.4 J/K/mol
249.28 K	143.4 J/K/mol
250 K	143.6 J/K/mol
250.41 K	143.5 J/K/mol
252.78 K	143.7 J/K/mol
253.34 K	143.5 J/K/mol
256.26 K	143.9 J/K/mol
256.28 K	144.1 J/K/mol
259.17 K	144 J/K/mol
260 K	144.2 J/K/mol
261.17 K	144.3 J/K/mol
262.1 K	144.3 J/K/mol
262.79 K	144.5 J/K/mol
263.79 K	144.4 J/K/mol
265.01 K	144.6 J/K/mol
266.68 K	144.8 J/K/mol
267.92 K	144.6 J/K/mol
269.56 K	145 J/K/mol
270 K	144.9 J/K/mol
270.82 K	144.8 J/K/mol
272.44 K	145.3 J/K/mol
273.71 K	145 J/K/mol
275.31 K	145.4 J/K/mol
276.6 K	145.4 J/K/mol
278.16 K	145.6 J/K/mol
279.47 K	145.6 J/K/mol
280 K	145.9 J/K/mol
281.01 K	146.1 J/K/mol
283.85 K	146.6 J/K/mol
286.68 K	146.7 J/K/mol
289.51 K	147 J/K/mol
290 K	147.1 J/K/mol
292.32 K	147.4 J/K/mol
298.15 K	148.2 J/K/mol and 148.2 J/K/mol
300 K	148.5 J/K/mol
301.5 K	148.7 J/K/mol
305 K	149 J/K/mol

From the NIST ThermoML archive (doi:10.1016/j.jct.2007.02.009)
